Source: US8663927B2, “Systems and methods for diagnosis and monitoring of bacteria-related conditions” (priority 2007, dated 2014)

What was measured:
RhlR = target: T1, RhlR (Pseudomonas aeruginosa, UniProt P54292); assay: Whole-cell sensing system harboring plasmid pSB406 (rhlR, PrhlI::luxCDABE) in E. coli JM109, bioluminescence; assay type: cell-based; conditions: for response of the biosensing system at the highest concentration tested: pSB406, 1×10^−4 M; for Limit of Detection: concentration giving signal >= blank average plus three standard deviations; for Signal Intensity at 1 × 10^−4 M: pSB406 sensing cells, 2 h incubation at 37° C., racemic AHL, average ± one standard deviation
T1 construct: expressed in transfected cells; host or cells: Escherichia coli JM109 transformed with plasmid pSB406
T1 sequence (P54292 whole entry): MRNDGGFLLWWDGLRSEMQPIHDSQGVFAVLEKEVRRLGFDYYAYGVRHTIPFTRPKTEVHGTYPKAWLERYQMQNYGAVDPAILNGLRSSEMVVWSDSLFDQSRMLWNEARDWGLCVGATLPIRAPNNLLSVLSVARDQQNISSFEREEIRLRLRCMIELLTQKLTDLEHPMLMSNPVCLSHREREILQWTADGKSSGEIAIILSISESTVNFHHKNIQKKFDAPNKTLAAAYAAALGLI
Method: (§1) The bacterial strain Escherichia coli JM109 was purchased from Stratagene (Cedar Creek, Tex.). Plasmids pSB406 and pSB1075 were transformed respectively into competent E. coli JM109 cells using the standard protocol provided by the manufacturer. The transformed cells were grown at 37° C. overnight on LB agar plates containing 50 μg/mL ampicillin. Cells from a single colony were grown overnight at 37° C., 250 rpm in LB broth containing the same amount (w/v) of ampicillin. Glycerol stocks were prepared from those cell cultures and stored at −80° C. Fresh cell cultures were obtained from the glycerol stocks and grown in an orbital shaker at 37° C., 250 rpm until an optical density at 600 nm (OD600 nm) of 0.45-0.50 was reached.
(§2) Commercially available AHLs were dissolved in acetonitrile to obtain 1×10^−2 M stock solutions, which were serially diluted with distilled, deionized water. AHL standard solutions of concentrations ranging from 1×10^−4 to 1×10^−9 M were obtained. A 1% solution of acetonitrile in distilled, deionized water was used as blank. […] A total of 100 μL of each of these solutions was added in triplicate to culture tubes containing 1 mL of cell culture grown to an OD600 nm of 0.45-0.50. These culture tubes were then incubated in an orbital shaker at 37° C. at 250 rpm for 2 h. The induced bioluminescence was then measured using a microplate reader after transferring 200 μL aliquots in triplicate from each culture tube into a 96-well micro titer plate. The total measuring time/well was 0.20 s. The light intensity was expressed in relative light units (RLU). The results were plotted using the software GraphPad Prism 4 (GraphPad Software, Inc., San Diego, Calif.).
(§3) Two different whole-cell sensing systems were used, harboring either the pSB406 or pSB1075 plasmid, which are based on P. aeruginosa quorum sensing regulatory systems. The plasmids pSB406 and pSB 1075 incorporate the genes rhlR and lasR, respectively, and the reporter gene cassette luxCDABE under transcriptional control of the promoters of the genes rhlI and lasI (PrhlI and PlasI) respectively. Since the rhlI and lasI genes code for the synthases for the AHLs, they are not cloned into plasmids used for sensing. When AHLs are present in the environment of the sensing bacterial cells, they bind to the regulatory proteins RhlR and LasR. Subsequently, the regulatory protein-AHL complex binds to the corresponding promoter and activates gene transcription (see, e.g., FIG. 2A for a schematic representation of AHL-dependent regulation of quorum sensing in LuxR/LuxI-type systems, and FIG. 2B for a schematic representation of plasmids pSB1075 and pSB406). As a result, the luxCDABE cassette is expressed and a bioluminescent signal is produced. Further, the bioluminescence signal produced is directly proportional to the amount of the target AHL molecule present.
Characterization of the whole-cell biosensing systems for the detection of AHLs was performed by incubating the bacterial cells with standard N-acyl homoserine lactone compounds with acyl side chains of different lengths. […] [19] […] Both compounds could be detected at concentrations as low as 1×10^−9 M, with a dynamic range of 4 orders of magnitude. The limit of detection was defined as the analyte concentration that produced a signal equal to or higher than the average signal produced by the blank plus three standard deviations.

LasR = target: T2, LasR (Pseudomonas aeruginosa, UniProt P25084); assay: Whole-cell sensing system harboring plasmid pSB1075 (lasR, PlasI::luxCDABE) in E. coli JM109, bioluminescence; assay type: cell-based; conditions: for Dynamic Range / Limit of Detection: pSB1075; for Limit of Detection: concentration giving signal >= blank average plus three standard deviations; for Signal Intensity at 1 × 10^−4 M: pSB1075 sensing cells, 2 h incubation at 37° C., racemic AHL, average ± one standard deviation (n = 3)
T2 construct: expressed in transfected cells; host or cells: Escherichia coli JM109 transformed with plasmid pSB1075
T2 sequence (P25084 whole entry): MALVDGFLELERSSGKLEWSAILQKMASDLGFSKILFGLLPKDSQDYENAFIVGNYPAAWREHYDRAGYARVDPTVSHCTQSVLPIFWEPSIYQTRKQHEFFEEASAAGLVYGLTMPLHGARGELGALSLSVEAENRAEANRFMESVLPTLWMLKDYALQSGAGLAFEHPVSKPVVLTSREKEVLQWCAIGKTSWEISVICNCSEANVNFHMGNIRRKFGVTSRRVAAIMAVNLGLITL
Method: as §1, §2, §3
The limit of detection was 1×10^−9 M for C14-HSL, as well as C12-HSL.

V. harveyi strain BB170 = assay: AI-2 whole-cell sensing with bioluminescent sensor strain BB170; assay type: cell-based, Vibrio harveyi; conditions: 10^−7 M AI-2, after 2.5 hours of incubation with the BB170 sensor strain
Method: AB media used to grow V. harveyi strain BB170, a genetically modified strain that produces light in response to AI-2, was prepared as described previously. The BB170 sensor strain was grown overnight in AB medium at 30° C. and 175 rpm. The following day, overnight grown BB170 culture was diluted in AB medium to obtain a final O.D.600 nm of 0.010.
Saliva samples were collected and processed as described hereinabove. The available stock of AI-2 was 3.9 mM. AI-2 standard solutions with concentrations ranging from 2.5×10^−4M to 10^−7M were then prepared by using distilled, deionized water. 10 μL of AI-2 standard solution was incubated with 90 μL of BB170 bacterial culture at O.D.600 nm 0.010, in triplicate on a microtitre plate. 10 μL water incubated with 90 μL of BB170 served as a blank. An orbital shaker set at 30° C. and 175 rpm was used for incubation. Bioluminescence was then measured over a period of time. In order to evaluate the effect of saliva matrix, saliva samples were also spiked with a particular concentration of AI-2 and then incubated with the BB170 strain. […]
Vibrio harveyi bioluminescent strain BB170 was used for the detection of AI-2 and was modified from the wild type V. harveyi so that it induces lux expression exclusively in response to AI-2. AI-2 is detected by BB170 when it binds to the periplasmic protein LuxP. […]

Row | Compound | L-isomer versus DL-racemic mixture: limit of detection, dynamic range and maximum signal intensity of the dose-response curves (RhlR; pSB406) | Dynamic Range (RhlR; pSB406) [nM] | dynamic range (RhlR; pSB406) | response of the biosensing system at the highest concentration tested (RhlR) | Limit of Detection (RhlR; pSB406) [nM] | Signal Intensity at 1 × 10^−4 M (RhlR) | Dynamic Range (LasR) [nM] | Limit of Detection (LasR) [nM] | Signal Intensity at 1 × 10^−4 M (LasR) | response of the whole-cell sensor at the highest concentration tested (LasR; pSB1075, 1×10^−4 M) | Average Signal (V. harveyi strain BB170) [RLU]
1 | CCCC(=O)CC(=O)N[C@H]1CCOC1=O [3-oxo-C6-HSL, N-(3-oxo)-hexanoyl homoserine lactone] | no significant differences | – | – | – | – | – | – | – | – | – | –
2 | CCCC(=O)NC1CCOC1=O (centres unmarked) [C4-HSL, N-butyryl homoserine lactone] | – | 1 to 100000 | 4 orders of magnitude | induced the maximum response | 1 | 19.99 ± 0.00 ×10^5, RLU | 100 to 100000 | 100 | 1.87 ± 0.06 ×10^5, RLU | – | –
3 | CCCCCC(=O)NC1CCOC1=O (centres unmarked) [C6-HSL, N-hexanoyl homoserine lactone] | – | 1 to 100000 | 4 orders of magnitude | induced the maximum response | 1 | 19.64 ± 0.25 ×10^5, RLU | – | >100000 | 2.53 ± 1.15 ×10^5, RLU | – | –
4 | CCCCCCCC(=O)NC1CCOC1=O (centres unmarked) [C8-HSL, N-octanoyl homoserine lactone] | – | 1 to 100000 | – | – | 1 | 6.87 ± 0.23 ×10^5, RLU | 10000 to 100000 | 10000 | 7.94 ± 0.70 ×10^5, RLU | – | –
5 | CCCCCCCCCCCC(=O)NC1CCOC1=O (centres unmarked) [C12-HSL, N-dodecanoyl homoserine lactone] | – | 10 to 10000 | – | – | 10 | 8.40 ± 0.55 ×10^5, RLU | 1 to 10000 | 1 | 8.99 ± 0.17 ×10^5, RLU | – | –
6 | CCCCCCCCCCCCCC(=O)NC1CCOC1=O (centres unmarked) [C14-HSL, N-tetradecanoyl homoserine lactone] | – | – | – | – | >10000 | 4.22 ± 0.22 ×10^5, RLU | 1 to 100000 | 1 | 11.74 ± 0.09 ×10^5, RLU | induced the maximum response | –
7 | Autoinducer-2 [AI-2] | – | – | – | – | – | – | – | – | – | – | 324218
